Reference: ChEMBL document CHEMBL1201862, “PubChem BioAssay data set” (2004)
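96-well plates; 48 h exposure; 5 concentrations. Endpoints by linear interpolation between flanking doses. Not reached: highest tested concentration assigned. GI50: concentration for 50% inhibition of growth.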 Calls of active or inactive are those of the source. Cut-off read from the data, not from the text of the source: active = GI50 up to about 1.1 µM and inactive = higher.

Legend:
Assay in all cases: inhibition of tumour cell growth, NCI panel, 48 h
[1] = test system: 786-0
[2] = test system: A498
[3] = test system: DU-145
[4] = test system: EKVX
[5] = test system: HCT-116
[6] = test system: HCT-15
[7] = test system: HOP-62
[8] = test system: HOP-92
[9] = test system: IGROV-1
[10] = test system: MDA-MB-231
[11] = test system: NCI-H460
[12] = test system: OVCAR-4
[13] = test system: PC-3
[14] = test system: RPMI-8226
[15] = test system: SF-295
[16] = test system: SF-539
[17] = test system: SK-MEL-28
[18] = test system: SNB-19
[19] = test system: UACC-62

## C1=N\CCOCC/N=C/c2ccccc2OCc2cccc(n2)COc2ccccc2/1
[1]
  GI50: 10 µM (inactive)
[2]
  GI50: > 25 µM (inactive)
[3]
  GI50: 6.61 µM (inactive)
[4]
  GI50: 16.6 µM (inactive)
[5]
  GI50: 4.99 µM (inactive)
[6]
  GI50: 6.46 µM
[7]
  GI50: 16.5 µM (inactive)
[8]
  GI50: 10.4 µM (inactive)
[9]
  GI50: 6.3 µM (inactive)
[10]
  GI50: 8.93 µM (inactive)
[11]
  GI50: > 25 µM (inactive)
[12]
  GI50: 6.03 µM (inactive)
[13]
  GI50: 8.93 µM (inactive)
[14]
  GI50: 4.88 µM (inactive)
[15]
  GI50: 4.02 µM (inactive)
[16]
  GI50: 3.2 µM (inactive)
[17]
  GI50: 8.13 µM (inactive)
[18]
  GI50: 9.51 µM (inactive)
[19]
  GI50: 2.27 µM (inactive)

## O=c1ccc(=O)n(-c2ccccc2)[nH]1
[1]
  GI50: > 100 µM (inactive)
[2]
  GI50: > 100 µM (inactive)
[3]
  GI50: > 100 µM (inactive)
[4]
  GI50: > 100 µM (inactive)
[5]
  GI50: > 100 µM (inactive)
[6]
  GI50: > 100 µM
[7]
  GI50: > 100 µM (inactive)
[8]
  GI50: > 100 µM (inactive)
[9]
  GI50: > 100 µM (inactive)
[10]
  GI50: > 100 µM (inactive)
[11]
  GI50: > 100 µM (inactive)
[12]
  GI50: > 100 µM (inactive)
[13]
  GI50: > 100 µM (inactive)
[14]
  GI50: > 100 µM (inactive)
[15]
  GI50: > 100 µM (inactive)
[16]
  GI50: > 100 µM (inactive)
[17]
  GI50: > 100 µM (inactive)
[18]
  GI50: > 100 µM (inactive)
[19]
  GI50: > 100 µM (inactive)

## COc1ccc(OCc2nc3cc(C(F)(F)F)ccc3nc2-c2ccccc2)cc1
[1]
  GI50: > 100 µM (inactive)
[2]
  GI50: 94.8 µM (inactive)
[3]
  GI50: > 100 µM (inactive)
[4]
  GI50: > 100 µM (inactive)
[5]
  GI50: > 100 µM (inactive)
[6]
  GI50: > 100 µM
[7]
  GI50: > 100 µM (inactive)
[8]
  GI50: > 100 µM (inactive)
[10]
  GI50: 27.4 µM (inactive)
[11]
  GI50: > 100 µM (inactive)
[12]
  GI50: > 100 µM (inactive)
[13]
  GI50: > 100 µM (inactive)
[14]
  GI50: > 100 µM (inactive)
[15]
  GI50: > 100 µM (inactive)
[16]
  GI50: > 100 µM (inactive)
[17]
  GI50: > 100 µM (inactive)
[18]
  GI50: > 100 µM (inactive)
[19]
  GI50: > 100 µM (inactive)

## CC(=O)Nc1c(C)cc2c(nc3n2CCC3O)c1[N+](=O)[O-] (centres undefined)
[1]
  GI50: > 100 µM (inactive)
[2]
  GI50: > 100 µM (inactive)
[3]
  GI50: > 100 µM (inactive)
[4]
  GI50: > 100 µM (inactive)
[5]
  GI50: > 100 µM (inactive)
[6]
  GI50: > 100 µM
[8]
  GI50: > 100 µM (inactive)
[9]
  GI50: > 100 µM (inactive)
[10]
  GI50: > 100 µM (inactive)
[11]
  GI50: > 100 µM (inactive)
[12]
  GI50: > 100 µM (inactive)
[13]
  GI50: > 100 µM (inactive)
[14]
  GI50: > 100 µM (inactive)
[15]
  GI50: > 100 µM (inactive)
[16]
  GI50: > 100 µM (inactive)
[17]
  GI50: > 100 µM (inactive)
[18]
  GI50: > 100 µM (inactive)
[19]
  GI50: > 100 µM (inactive)

## CC(=O)Nc1cc(C(=O)Nc2cc(C(=O)N3CC(CCl)c4c3cc(N)c3ccccc43)nn2C)nn1C (centres undefined)
[1]
  GI50: 0.0893 µM (active)
[2]
  GI50: < 0.0115 µM (active)
[3]
  GI50: < 0.01 µM (active)
[4]
  GI50: 0.159 µM (active)
[5]
  GI50: 0.0187 µM (active)
[6]
  GI50: 0.571 µM
[7]
  GI50: 0.101 µM (active)
[8]
  GI50: < 0.0218 µM (active)
[9]
  GI50: 0.0405 µM (active)
[10]
  GI50: 0.185 µM (active)
[11]
  GI50: < 0.01 µM (active)
[12]
  GI50: 0.171 µM (active)
[13]
  GI50: 0.101 µM (active)
[14]
  GI50: 0.188 µM (active)
[15]
  GI50: 0.287 µM (active)
[16]
  GI50: 0.0191 µM (active)
[17]
  GI50: 0.0782 µM (active)
[18]
  GI50: 0.127 µM (active)
[19]
  GI50: < 0.0118 µM (active)

## Nc1ccc(COC(O)CN2CCCCC2)cc1[N+](=O)[O-] (centres undefined)
[1]
  GI50: > 100 µM (inactive)
[2]
  GI50: > 100 µM (inactive)
[3]
  GI50: > 100 µM (inactive)
[5]
  GI50: > 100 µM (inactive)
[6]
  GI50: > 100 µM
[8]
  GI50: > 100 µM (inactive)
[9]
  GI50: > 100 µM (inactive)
[10]
  GI50: > 100 µM (inactive)
[11]
  GI50: > 100 µM (inactive)
[12]
  GI50: > 100 µM (inactive)
[13]
  GI50: > 100 µM (inactive)
[14]
  GI50: > 100 µM (inactive)
[15]
  GI50: > 100 µM (inactive)
[16]
  GI50: > 100 µM (inactive)
[17]
  GI50: > 100 µM (inactive)
[18]
  GI50: > 100 µM (inactive)
[19]
  GI50: > 100 µM (inactive)

## COc1ccc(/C=C2\CCS(=O)(=O)c3ccccc3C2=O)cc1OC
[1]
  GI50: 28.1 µM (inactive)
[2]
  GI50: 33.4 µM (inactive)
[3]
  GI50: 23.6 µM (inactive)
[4]
  GI50: 38.2 µM (inactive)
[5]
  GI50: 28.1 µM (inactive)
[6]
  GI50: 11.9 µM
[7]
  GI50: 38.5 µM (inactive)
[8]
  GI50: 19.6 µM (inactive)
[9]
  GI50: 7.91 µM (inactive)
[10]
  GI50: 30.8 µM (inactive)
[11]
  GI50: 18.3 µM (inactive)
[12]
  GI50: 17.9 µM (inactive)
[13]
  GI50: 27.5 µM (inactive)
[14]
  GI50: 35.2 µM (inactive)
[15]
  GI50: 43.6 µM (inactive)
[16]
  GI50: 25.6 µM (inactive)
[17]
  GI50: 53.1 µM (inactive)
[18]
  GI50: 42.8 µM (inactive)
[19]
  GI50: 16.7 µM (inactive)
